This is an account of results in ChEMBL document CHEMBL4346752, “Discovery and evaluation of novel nitrodihydroimidazooxazoles as promising anti-tuberculosis agents” (Bioorg Med Chem Lett, 2019).

Molecules are shown by their SMILES. In brackets after ≈: the same amount, converted by molar mass. A value given as a limit tells only on which side of the number the result lay.

A short description of series [1]: Cytotoxicity against African green monkey Vero cells assessed as reduction in cell viability incubated for 72 hrs by MTT assay. Format: cell-based. The settings on record: chlorocebus sabaeus. For orientation: Tetrazolium assays rely on reduction of a dye to a coloured formazan, in cell work by metabolically active cells.
Series [2] relates to Mycobacterium tuberculosis. The series is described as follows: Antimycobacterial activity against Mycobacterium tuberculosis H37Rv assessed as reduction in bacterial cell growth incubated for 8 days measured under aerobic MABA conditions by alamar blue staining based assay. The settings on record: 192 h. Type of series: functional. (In general: The colour change of resazurin is a common sign of viable cells or microbes.)

The test system of series [3] is Mycobacterium tuberculosis. Briefly: Antimycobacterial activity against Mycobacterium tuberculosis H37Rv assessed as reduction in bacterial cell growth incubated for 11 days measured under anaerobic LORA condition by luminescence assay. Type of series: functional. The settings on record: 264 h.
Series [4] can be described thus: Solubility of the compound in water at pH 2 by HPLC analysis. Type of series: physicochemical.
A short description of series [5]: Solubility of the compound in water at pH 6.5 by HPLC analysis. Type of series: physicochemical.
Series [6] in a line: Apparent permeability across basolateral to apical side in MDCK cells at […] incubated for 60 mins by HPLC analysis. Type of series: ADME, cell-based, Canis lupus familiaris. To be noted: dog; for Papp B→A at 1 h: MDCK.
Series [7] can be described thus: Efflux ratio of apparent permeability across basolateral to apical over apical to basolateral side in MDCK cells at […] incubated for 60 mins by HPLC analysis. Type of series: ADME, cell-based, Canis lupus familiaris. To be noted: dog.
Series [8] in a line: Apparent permeability across apical to basolateral side in MDCK cells at […] incubated for 60 mins by HPLC analysis. Type of series: ADME, cell-based, Canis lupus familiaris. The settings on record: dog; for Papp A→B at 1 h: MDCK.

Usually CC50 stands for the concentration giving 50% cytotoxicity. Consider `C[C@]1(CN2CCc3oc(-c4ccc(F)cc4)nc3C2)Cn2cc([N+](=O)[O-])nc2O1`, for which the CC50 at 72 h in series [1] is greater than 32 µg/mL.

In general, MIC refers to the smallest concentration in the dilution series that meets the test's criterion for growth inhibition. Take `C[C@]1(CN2CCc3nc(-c4cccc(Cl)c4F)ccc3C2)Cn2cc([N+](=O)[O-])nc2O1`: the results for the MIC in series [2] and in series [3] were 0.03 µg/mL (≈ 0.0676 µM) and 5.71 µg/mL (≈ 12.9 µM), respectively. Moreover, the CC50 at 72 h in series [1] was greater than 32 µg/mL.

Turning to `C[C@]1(CN2CCc3nc(-c4cc(F)ccc4F)ccc3C2)Cn2cc([N+](=O)[O-])nc2O1`, the MIC in series [2] was found to be 0.05 µg/mL (≈ 0.117 µM); in series [3], 5.14 µg/mL (≈ 12 µM). The CC50 at 72 h in series [1] was greater than 32 µg/mL.

By solubility is commonly meant the concentration that dissolves in the medium under given conditions. Take `C[C@]1(CN2CCc3nc(-c4cc(F)c(F)c(F)c4)ccc3C2)Cn2cc([N+](=O)[O-])nc2O1`: the solubility in series [4] was greater than 200 µM; in series [5], less than 1 µM. The MIC was 0.08 µg/mL (≈ 0.18 µM) in series [2] and 0.76 µg/mL (≈ 1.71 µM) in series [3]. Also, the CC50 at 72 h in series [1] is greater than 32 µg/mL.

One may read the Papp B→A as how fast a substance crosses the layer from the basolateral side. One may read the efflux ratio as a quotient of directional permeabilities that is used to spot active efflux. One may read the Papp A→B as how fast a substance crosses the layer from the apical side. Regarding `C[C@]1(CN2CCc3nc(-c4ccccc4)ccc3C2)Cn2cc([N+](=O)[O-])nc2O1`, the figures for the solubility in series [4] and in series [5] were 130 µM (≈ 50.7 µg/mL) and 3.35 µM (≈ 1.31 µg/mL), respectively. In series [6], the Papp B→A at 1 h turned out to be 22.7 ×10⁻⁶ cm/s. Further, the efflux ratio at 1 h in series [7] (MDCK) was 1.35. Besides, in series [8], the Papp A→B at 1 h turned out to be 16.8 ×10⁻⁶ cm/s. In addition, in series [1], the CC50 at 72 h is greater than 32 µg/mL.

On to `C[C@]1(CN2CCc3nc(-c4ccc(F)c(F)c4)oc3C2)Cn2cc([N+](=O)[O-])nc2O1`, for which, in series [1], the CC50 at 72 h was greater than 32 µg/mL.

As for `C[C@]1(CN2CCc3nc(-c4cccc(F)c4)ccc3C2)Cn2cc([N+](=O)[O-])nc2O1`, the MIC was determined as 0.02 µg/mL (≈ 0.0488 µM) in series [2] and 6.5 µg/mL (≈ 15.9 µM) in series [3]. In series [1], the CC50 at 72 h is greater than 32 µg/mL.

Consider `C[C@]1(CN2CCc3nc(-c4ccc(F)cc4)oc3C2)Cn2cc([N+](=O)[O-])nc2O1`, for which the CC50 at 72 h in series [1] is greater than 32 µg/mL.

`CO[C@H]1/C=C/O[C@@]2(C)Oc3c(C)c(O)c4c(O)c(c(/C=N/N5CCN(C)CC5)c(O)c4c3C2=O)NC(=O)/C(C)=C\C=C\[C@H](C)[C@H](O)[C@@H](C)[C@@H](O)[C@@H](C)[C@H](OC(C)=O)[C@@H]1C` [RIFAMPIN]: the MIC stood at 0.1 µg/mL (≈ 0.122 µM) in series [2] and 0.72 µg/mL (≈ 0.875 µM) in series [3]. In series [1], the CC50 at 72 h was greater than 32 µg/mL.

On to `C[C@]1(CN2CCc3nc(-c4ccccc4F)ccc3C2)Cn2cc([N+](=O)[O-])nc2O1`, for which the MIC in series [2] is 0.05 µg/mL (≈ 0.122 µM); in series [3], 5 µg/mL (≈ 12.2 µM). In addition, the CC50 at 72 h in series [1] is greater than 32 µg/mL.

On to `C[C@]1(CN2CCc3nc(-c4ccc(F)c(F)c4)ccc3C2)Cn2cc([N+](=O)[O-])nc2O1`, for which the MIC turned out to be 0.03 µg/mL (≈ 0.0702 µM) in series [2] and 3.88 µg/mL (≈ 9.08 µM) in series [3]. Further, the CC50 at 72 h in series [1] is greater than 32 µg/mL.

What is called Papp is the rate of passage across a membrane or cell layer, normalised by area and donor concentration. Turning to `C[C@]1(CN2CCc3nc(-c4ccc(F)cc4)ccc3C2)Cn2cc([N+](=O)[O-])nc2O1`, the solubility was 143 µM (≈ 58.7 µg/mL) in series [4] and 9.41 µM (≈ 3.85 µg/mL) in series [5]. Further, the Papp is 19.29 ×10⁻⁶ cm/s in series [6] (mdck, 1 h, 100000 µM) and 20.92 ×10⁻⁶ cm/s in series [8] (mdck, 1 h, 100000 µM). The Ratio in series [7] (mdck, 1 h, 100000 µM) amounted to 1.09. For the same compound, the MIC in series [2] is less than 0.031 µg/mL; in series [3], 4.83 µg/mL (≈ 11.8 µM). For the same compound, the CC50 at 72 h in series [1] is greater than 32 µg/mL.

As to `C[C@]1(CN2CCc3nc(-c4cccc(F)c4F)ccc3C2)Cn2cc([N+](=O)[O-])nc2O1`, the MIC in series [2] came out at 0.03 µg/mL (≈ 0.0702 µM); in series [3], 3.72 µg/mL (≈ 8.7 µM). For the same compound, the CC50 at 72 h in series [1] is greater than 32 µg/mL.

Consider `C[C@]1(CN2CCc3nc(-c4ccc(C(F)(F)F)cc4)ccc3C2)Cn2cc([N+](=O)[O-])nc2O1`, for which the minimum inhibitory concentration (MIC) in series [2] is 0.03 µg/mL (≈ 0.0653 µM); in series [3], greater than 8 µg/mL. Also, the CC50 at 72 h in series [1] is greater than 32 µg/mL.

In the case of `C[C@]1(CN2CCc3nc(-c4ccc(F)c(Cl)c4)ccc3C2)Cn2cc([N+](=O)[O-])nc2O1`, the results for the MIC in series [2] and in series [3] were 0.03 µg/mL (≈ 0.0676 µM) and 3.82 µg/mL (≈ 8.61 µM), respectively. For the same compound, the cytotoxic concentration (CC50) at 72 h in series [1] was greater than 32 µg/mL.

Turning to `C[C@]1(CN2CCc3nc(C4CCCCC4)ccc3C2)Cn2cc([N+](=O)[O-])nc2O1`, the MIC is 0.03 µg/mL (≈ 0.0755 µM) in series [2] and 7.21 µg/mL (≈ 18.1 µM) in series [3].

As for `C[C@]1(COc2ccc(N3CCC(Oc4ccc(OC(F)(F)F)cc4)CC3)cc2)Cn2cc([N+](=O)[O-])nc2O1`, the Papp B→A at 1 h in series [6] was found to be 0.17 ×10⁻⁶ cm/s. In series [8], the Papp A→B at 1 h was determined as 0.09 ×10⁻⁶ cm/s. For the same compound, the MIC in series [2] was less than 0.031 µg/mL; in series [3], 1.23 µg/mL (≈ 2.3 µM).

Turning to `C[C@]1(CN2CCc3nc(-c4cc(F)ccc4Cl)ccc3C2)Cn2cc([N+](=O)[O-])nc2O1`, the figures for the MIC in series [2] and in series [3] were 0.15 µg/mL (≈ 0.338 µM) and 4.28 µg/mL (≈ 9.64 µM), respectively. Moreover, the cytotoxic concentration (CC50) at 72 h in series [1] was greater than 32 µg/mL.

For `C[C@]1(CN2CCc3nc(-c4ccc(Cl)cc4F)ccc3C2)Cn2cc([N+](=O)[O-])nc2O1`, the MIC in series [2] was found to be 0.03 µg/mL (≈ 0.0676 µM); in series [3], 5.28 µg/mL (≈ 11.9 µM). For the same compound, in series [1], the CC50 at 72 h was greater than 32 µg/mL.

In the case of `C[C@]1(CN2CCc3nc(-c4ccc(F)cc4)sc3C2)Cn2cc([N+](=O)[O-])nc2O1`, in series [1], the CC50 at 72 h was greater than 32 µg/mL.

For `C[C@]1(CN2CCc3nc(-c4ccc(Cl)c(F)c4)ccc3C2)Cn2cc([N+](=O)[O-])nc2O1`, the figures for the minimum inhibitory concentration (MIC) in series [2] and in series [3] were 0.03 µg/mL (≈ 0.0676 µM) and 3.79 µg/mL (≈ 8.54 µM), respectively. Moreover, the CC50 at 72 h in series [1] was greater than 32 µg/mL.

For `C[C@]1(CN2CCc3nc(-c4cc(Cl)ccc4F)ccc3C2)Cn2cc([N+](=O)[O-])nc2O1`, the MIC was 0.04 µg/mL (≈ 0.0901 µM) in series [2] and 8.79 µg/mL (≈ 19.8 µM) in series [3]. The CC50 at 72 h in series [1] is greater than 32 µg/mL.

On to `C[C@]1(CN2CCc3nc(-c4cc(F)cc(F)c4)ccc3C2)Cn2cc([N+](=O)[O-])nc2O1`, for which the results for the MIC in series [2] and in series [3] were 0.03 µg/mL (≈ 0.0702 µM) and 1.64 µg/mL (≈ 3.84 µM), respectively. Besides, in series [1], the CC50 at 72 h is greater than 32 µg/mL.

Turning to `C[C@]1(CN2CCc3nc(-c4ccc(F)cc4F)ccc3C2)Cn2cc([N+](=O)[O-])nc2O1`, the MIC in series [2] was 0.03 µg/mL (≈ 0.0702 µM); in series [3], greater than 8 µg/mL. The CC50 at 72 h in series [1] came to 12.5 µg/mL (≈ 29.2 µM).

Consider `C[C@]1(CN2CCc3nc(-c4cc(F)cc(Cl)c4)ccc3C2)Cn2cc([N+](=O)[O-])nc2O1`, for which the MIC in series [2] was 0.03 µg/mL (≈ 0.0676 µM); in series [3] it was 6.41 µg/mL (≈ 14.4 µM). The CC50 at 72 h in series [1] is greater than 32 µg/mL.
